Assay results taken from US20250176599A1, “FLAVOR COMPOSITION AND FOOD AND BEVERAGE” (TAKASAGO INTERNATIONAL CORPORATION, priority 2021, published 2025).

What was measured:
[1] = Sensory evaluation of aqueous solution II containing (E)-2-octenal 10 ppb: off-flavor intensity and masking component intensity; details: (E)-2-octenal 10 ppb, average score 0-4
Method in brief: (§1)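 Nootkatone added to degradation-component solutions in ion-exchanged water and scored by eight experienced panelists. Off-flavor rated 0–4 relative to unmasked solution (4) and plain water (0). Masking-component intensity rated on an absolute 0–4 scale.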

[2] = Overall conclusion of the sensory evaluation across aqueous solutions I to VI
Method in brief: as §1

[3] = Sensory evaluation of aqueous solution IV containing 1,5-octadien-3-one 100 ppt: off-flavor intensity and masking component intensity; details: aqueous solution IV, 1,5-octadien-3-one 100 ppt, average score 0-4
Method in brief: as §1

[4] = Sensory evaluation of aqueous solution III containing 1-octen-3-one 1 ppb: off-flavor intensity and masking component intensity; details: 1-octen-3-one 1 ppb, average score 0-4
Method in brief: as §1

[5] = Sensory evaluation of aqueous solution VI containing 1,5-octadien-3-ol 10 ppb: off-flavor intensity and masking component intensity; details: aqueous solution VI, 1,5-octadien-3-ol 10 ppb, average score 0-4
Method in brief: as §1

[6] = Sensory evaluation of aqueous solution I containing (E)-2-nonenal 1 ppb: off-flavor intensity and masking component intensity; details: (E)-2-nonenal 1 ppb, average score 0-4
Method in brief: as §1

[7] = Sensory evaluation of aqueous solution V containing 1-octen-3-ol 10 ppb: off-flavor intensity and masking component intensity; details: 1-octen-3-ol 10 ppb, average score 0-4
Method in brief: as §1

## C/C=C/C(=O)C1=C(C)C=CCC1(C)C [β-Damascenone, β-damascenone]
[1]; 0.001 ppt added
  Off-Flavor Intensity: 2.9 points
[1]; 0.01 ppt added
  Off-Flavor Intensity: 2.8 points
[1]; 0.1 ppt added
  Off-Flavor Intensity: 2.4 points
[1]; 1 ppb added
  Off-Flavor Intensity: 1.1 points
[1]; 1 ppt added
  Off-Flavor Intensity: 2.1 points
[1]; 10 ppb added
  Off-Flavor Intensity: 0.9 points
[1]; 10 ppt added
  Off-Flavor Intensity: 1.9 points
[1]; 100 ppb added
  Off-Flavor Intensity: 0.8 points
[1]; 100 ppt added
  Off-Flavor Intensity: 1.4 points
[2]
  concentration that masks the off-flavor and does not affect the flavor of the food and/or beverage itself, lower limit: ≥ 0.001 ppt
  concentration that masks the off-flavor and does not affect the flavor of the food and/or beverage itself, upper limit: ≤ 10 ppb
[3]; 0.001 ppt added
  Off-Flavor Intensity: 3.5 points
[3]; 0.01 ppt added
  Off-Flavor Intensity: 3.4 points
[3]; 0.1 ppt added
  Off-Flavor Intensity: 3.3 points
[3]; 1 ppb added
  Off-Flavor Intensity: 2.3 points
[3]; 1 ppt added
  Off-Flavor Intensity: 3.1 points
[3]; 10 ppb added
  Off-Flavor Intensity: 1.6 points
[3]; 10 ppt added
  Off-Flavor Intensity: 2.8 points
[3]; 100 ppb added
  Off-Flavor Intensity: 1.6 points
[3]; 100 ppt added
  Off-Flavor Intensity: 2.5 points
[4]; 0.001 ppt added
  Off-Flavor Intensity: 3.6 points
[4]; 0.01 ppt added
  Off-Flavor Intensity: 3.6 points
[4]; 0.1 ppt added
  Off-Flavor Intensity: 3.3 points
[4]; 1 ppb added
  Off-Flavor Intensity: 1.9 points
[4]; 1 ppt added
  Off-Flavor Intensity: 2.9 points
[4]; 10 ppb added
  Off-Flavor Intensity: 1.4 points
[4]; 10 ppt added
  Off-Flavor Intensity: 2.5 points
[4]; 100 ppb added
  Off-Flavor Intensity: 1.3 points
[4]; 100 ppt added
  Off-Flavor Intensity: 2.3 points
[5]; 0.001 ppt added
  Off-Flavor Intensity: 2.6 points
[5]; 0.01 ppt added
  Off-Flavor Intensity: 2.1 points
[5]; 0.1 ppt added
  Off-Flavor Intensity: 1.9 points
[5]; 1 ppb added
  Off-Flavor Intensity: 0.6 points
[5]; 1 ppt added
  Off-Flavor Intensity: 1.7 points
[5]; 10 ppb added
  Off-Flavor Intensity: 0.2 points
[5]; 10 ppt added
  Off-Flavor Intensity: 1.3 points
[5]; 100 ppb added
  Off-Flavor Intensity: 0.0 points
[5]; 100 ppt added
  Off-Flavor Intensity: 0.9 points
[6]; 0.001 ppt added
  Off-Flavor Intensity: 3.5 points
[6]; 0.01 ppt added
  Off-Flavor Intensity: 3.5 points
[6]; 0.1 ppt added
  Off-Flavor Intensity: 2.9 points
[6]; 1 ppb added
  Off-Flavor Intensity: 1.8 points
[6]; 1 ppt added
  Off-Flavor Intensity: 2.5 points
[6]; 10 ppb added
  Off-Flavor Intensity: 1.4 points
[6]; 10 ppt added
  Off-Flavor Intensity: 2.4 points
[6]; 100 ppb added
  Off-Flavor Intensity: 1.0 points
[6]; 100 ppt added
  Off-Flavor Intensity: 2.3 points
[7]; 0.001 ppt added
  Off-Flavor Intensity: 3.4 points
[7]; 0.01 ppt added
  Off-Flavor Intensity: 3.1 points
[7]; 0.1 ppt added
  Off-Flavor Intensity: 2.6 points
[7]; 1 ppb added
  Off-Flavor Intensity: 1.5 points
[7]; 1 ppt added
  Off-Flavor Intensity: 2.4 points
[7]; 10 ppb added
  Off-Flavor Intensity: 1.1 points
[7]; 10 ppt added
  Off-Flavor Intensity: 2.4 points
[7]; 100 ppb added
  Off-Flavor Intensity: 0.8 points
[7]; 100 ppt added
  Off-Flavor Intensity: 2.0 points

## CC(=O)/C=C/C1=C(C)CCCC1(C)C [β-Ionone, β-ionone]
[1]; 0.01 ppt added
  Off-Flavor Intensity: 3.1 points
[1]; 0.1 ppt added
  Off-Flavor Intensity: 3.0 points
[1]; 1 ppb added
  Off-Flavor Intensity: 1.6 points
[1]; 1 ppm added
  Off-Flavor Intensity: 0.1 points
[1]; 1 ppt added
  Off-Flavor Intensity: 2.6 points
[1]; 10 ppb added
  Off-Flavor Intensity: 1.4 points
[1]; 10 ppt added
  Off-Flavor Intensity: 2.3 points
[1]; 100 ppb added
  Off-Flavor Intensity: 0.8 points
[1]; 100 ppt added
  Off-Flavor Intensity: 2.0 points
[2]
  concentration that masks the off-flavor and does not affect the flavor of the food and/or beverage itself, lower limit: ≥ 0.1 ppt
  concentration that masks the off-flavor and does not affect the flavor of the food and/or beverage itself, upper limit: ≤ 100 ppb
[3]; 0.01 ppt added
  Off-Flavor Intensity: 3.8 points
[3]; 0.1 ppt added
  Off-Flavor Intensity: 3.5 points
[3]; 1 ppb added
  Off-Flavor Intensity: 2.5 points
[3]; 1 ppm added
  Off-Flavor Intensity: 1.0 points
[3]; 1 ppt added
  Off-Flavor Intensity: 3.5 points
[3]; 10 ppb added
  Off-Flavor Intensity: 2.3 points
[3]; 10 ppt added
  Off-Flavor Intensity: 3.4 points
[3]; 100 ppb added
  Off-Flavor Intensity: 1.6 points
[3]; 100 ppt added
  Off-Flavor Intensity: 3.0 points
[4]; 0.01 ppt added
  Off-Flavor Intensity: 3.5 points
[4]; 0.1 ppt added
  Off-Flavor Intensity: 3.3 points
[4]; 1 ppb added
  Off-Flavor Intensity: 2.0 points
[4]; 1 ppm added
  Off-Flavor Intensity: 0.8 points
[4]; 1 ppt added
  Off-Flavor Intensity: 3.0 points
[4]; 10 ppb added
  Off-Flavor Intensity: 1.6 points
[4]; 10 ppt added
  Off-Flavor Intensity: 2.8 points
[4]; 100 ppb added
  Off-Flavor Intensity: 1.4 points
[4]; 100 ppt added
  Off-Flavor Intensity: 2.5 points
[5]; 0.01 ppt added
  Off-Flavor Intensity: 3.3 points
[5]; 0.1 ppt added
  Off-Flavor Intensity: 2.9 points
[5]; 1 ppb added
  Off-Flavor Intensity: 1.8 points
[5]; 1 ppm added
  Off-Flavor Intensity: 0.4 points
[5]; 1 ppt added
  Off-Flavor Intensity: 2.6 points
[5]; 10 ppb added
  Off-Flavor Intensity: 1.5 points
[5]; 10 ppt added
  Off-Flavor Intensity: 2.3 points
[5]; 100 ppb added
  Off-Flavor Intensity: 0.8 points
[5]; 100 ppt added
  Off-Flavor Intensity: 2.1 points
[6]; 0.01 ppt added
  Off-Flavor Intensity: 3.4 points
[6]; 0.1 ppt added
  Off-Flavor Intensity: 3.1 points
[6]; 1 ppb added
  Off-Flavor Intensity: 1.8 points
[6]; 1 ppm added
  Off-Flavor Intensity: 0.5 points
[6]; 1 ppt added
  Off-Flavor Intensity: 2.6 points
[6]; 10 ppb added
  Off-Flavor Intensity: 1.4 points
[6]; 10 ppt added
  Off-Flavor Intensity: 2.6 points
[6]; 100 ppb added
  Off-Flavor Intensity: 0.8 points
[6]; 100 ppt added
  Off-Flavor Intensity: 2.3 points
[7]; 0.01 ppt added
  Off-Flavor Intensity: 3.3 points
[7]; 0.1 ppt added
  Off-Flavor Intensity: 3.0 points
[7]; 1 ppb added
  Off-Flavor Intensity: 1.8 points
[7]; 1 ppm added
  Off-Flavor Intensity: 0.3 points
[7]; 1 ppt added
  Off-Flavor Intensity: 2.5 points
[7]; 10 ppb added
  Off-Flavor Intensity: 1.4 points
[7]; 10 ppt added
  Off-Flavor Intensity: 2.5 points
[7]; 100 ppb added
  Off-Flavor Intensity: 0.8 points
[7]; 100 ppt added
  Off-Flavor Intensity: 2.3 points
